This note sets out measurements from patent US5494897A, “Endothelin antagonistic peptide” (Banyu Pharmaceutical Co., Ltd., priority 1993, dated 1996).

Numbered stars: 1 amine (or outer) side, 2 acyl side, 3 side chain; on linkers, the order of the positions; unused ones are H or OH. Square brackets hold non-standard residues; d marks the D form. Peptide text beside a SMILES is read from it. X1 = N#Cc1[nH]c2ccccc2c1C[C@@H](N[*:1])C(=O)[*:2]; dPen = CC(C)(S)[C@@H](N)C(=O)O

Experiment [1] deals with T1, ETB receptor (Sus scrofa, UniProt P35463).
T1 construct: ETB receptors of porcine cerebellum membrane suspension used in the present experiments; from tissue; host or cells: porcine cerebellum membrane preparation
T1 sequence (P35463 27-443): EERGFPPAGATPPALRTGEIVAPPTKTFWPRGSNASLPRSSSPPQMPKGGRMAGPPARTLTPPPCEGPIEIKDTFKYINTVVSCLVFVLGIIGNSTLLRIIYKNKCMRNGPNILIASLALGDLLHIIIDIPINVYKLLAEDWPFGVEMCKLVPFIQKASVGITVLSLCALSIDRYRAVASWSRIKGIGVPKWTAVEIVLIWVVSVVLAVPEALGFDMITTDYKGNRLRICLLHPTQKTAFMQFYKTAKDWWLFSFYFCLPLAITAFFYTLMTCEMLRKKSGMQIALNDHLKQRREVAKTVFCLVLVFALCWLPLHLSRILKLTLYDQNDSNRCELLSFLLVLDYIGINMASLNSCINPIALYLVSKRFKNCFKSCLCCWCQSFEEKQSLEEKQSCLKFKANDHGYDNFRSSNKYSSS
Put plainly: Endothelin binding inhibition test (125I-endothelin-1, porcine cerebellum membrane). The conditions noted are these: 1.1 μM test compound; porcine cerebellum membrane (ETB receptors). The protocol: The cerebellum of porcine was homogenized in a buffer solution of 10 mM MOPS, pH 7.4, at 4° C. by a polytron. To the homogenate, sucrose was added to a concentration of 20%, and the mixture was centrifuged at 1,000×g for 15 minutes, and the supernatant was further centrifuged at 10,000×g for 15 minutes. The supernatant thereof was further centrifuged at 90,000×g for 40 minutes. The membrane precipitate thereby obtained was suspended in a buffer solution of 5 mM HEPES/Tris, pH 7.4, at a concentration of 3.3 mg/ml. Then, 16 μl of this membrane suspension was added to 340 μl of 50 mM tris/HCl buffer, pH 7.4, containing […] calcium chloride, 10 μM magnesium chloride, 0.1 mM PMSF, 1 μM pepstatin A, 2 μM leupeptin, 1 mM 1,10-phenanthroline and 0.1% bovine serum albumin. […] These mixtures were incubated at 25° C. for 4 hours, then subjected to filtration on a glass filter GF/C and then washed with 5 mM HEPES/Tris, pH 7.4, containing 0.3% bovine serum albumin. […] [formula] Each test was performed in triplicate.
The test compounds are indicated by compound Nos.

For experiment [2], the system named is human Girardi heart cells. Put plainly: Inhibition of endothelin-1-induced increase in intracellular calcium concentration (fura-2). Format: cell-based. The conditions noted are these: for inhibition of ET-1-induced increase in intracellular calcium concentration: 1.1 μM compound given 5 minutes before 100 nM ET-1, fura-2-loaded cells; for effect on the intracellular calcium concentration itself: compound alone, fura-2-loaded human Girardi heart cells. The procedure:
Inhibitory activities of test compounds against endothelin-1-induced increase in intracellular calcium concentration of human Girardi heart cells
Antagonism of test compounds to endothelin-1-induced increase in intracellular calcium concentration was evaluated in human Girardi heart cells (Dainippon Seiyaku Co., Ltd.).
Cultured human Girardi heart cells in Flask were harvested using 0.25% trypsin and 0.02% EDTA. The collected cells were washed with Dulbecco's modification eagle medium containing 20 mM Hepes and 0.3% BSA (pH 7.4, D medium). Then the cells were suspended in D medium and incubated with 2 μM of fura-2 acetoxymethyl ester at 37° C. for 30 minutes. The cell suspensions were diluted with a 10-fold volume of D medium and incubated for 20 minutes. The fura-2-loaded cells were collected by centrifugation and resuspended in Krebs-Henseleit Hepes buffer (pH 7.4). The resultant suspension in a cuvette was continuously stirred at 37° C. throughout the following measurement process. Each test compound or vehicle was given 5 minutes before the addition of 100 nM ET-1, and fluorescence intensity at emission wavelength of 510 nm and excitation wavelength of 340 and 380 nm was monitored with a JASCO CAF-100 spectrofluorometer (Japan), and [Ca^2+ ]i values were calculated according to the reported method (G. Grynkiewicz et al., J. Biol. Chem. 260, 3440-3450 (1985)).
Background: Calcium assays in cells follow changes in intracellular calcium, usually with a dye or a luminescent sensor.

Experiment [3] deals with T2, ETA receptors (Sus scrofa, UniProt Q29010).
T2 construct: porcine aorta membrane suspension containing a large amount of ETA receptors; from tissue; host or cells: porcine aorta membrane suspension
T2 sequence (Q29010 21-427): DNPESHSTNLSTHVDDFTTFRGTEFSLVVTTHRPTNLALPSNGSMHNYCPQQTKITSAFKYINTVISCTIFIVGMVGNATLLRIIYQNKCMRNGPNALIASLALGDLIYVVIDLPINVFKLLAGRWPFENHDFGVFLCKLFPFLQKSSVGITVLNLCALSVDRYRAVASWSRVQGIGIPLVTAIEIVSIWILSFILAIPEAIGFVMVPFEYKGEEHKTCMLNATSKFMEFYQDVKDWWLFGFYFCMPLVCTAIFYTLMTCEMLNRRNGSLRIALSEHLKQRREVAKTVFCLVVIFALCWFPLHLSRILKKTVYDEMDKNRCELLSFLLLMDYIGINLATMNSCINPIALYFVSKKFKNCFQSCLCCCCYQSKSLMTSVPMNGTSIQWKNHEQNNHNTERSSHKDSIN
In words: 125I-ET-1 binding inhibition to porcine aorta membrane suspension. The conditions noted are these: 1.1 μM; porcine aorta membrane suspension containing a large amount of ETA receptors.

One may read the inhibition as how much of the control response was suppressed. The low end stands for a weak effect, the high end for a strong effect. On to `CCCC[C@@H](NC(=O)[C@@H](Cc1c(C#N)[nH]c2ccccc12)NC(=O)[C@@H](NC(=O)N1C(C)CCCC1C)C(C)C)C(=O)O` (stereo partly drawn) [Compound 1], for which testing at 1.1 µM in experiment [1] gave an inhibition of 96%. In experiment [2], the “inhibition of ET-1-induced increase in intracellular calcium concentration” value is 94% and the “effect on the intracellular calcium concentration itself” value is reported as “no effect”.

In experiment [1], `CSC(C)(C)[C@H]1NC(=O)[C@@H]2CCCN2C(=O)[C@@H](CC(=O)O)NC(=O)[C@@H](Cc2c(C#N)[nH]c3ccccc23)NC(=O)[C@H](CC(C)C)NC1=O` [Compound 11] (cyclo(L[X1][dD]P[dPen](Me))) returned an inhibition at 1.1 µM of 97%. Also, in experiment [2], the “inhibition of ET-1-induced increase in intracellular calcium concentration” value is reported as 69% and the “effect on the intracellular calcium concentration itself” value is given as “no effect”.

With “cyclo(-DTrp-DAsp-Pro-DThg-Leu-) [compound 6, reference compound]”, in experiment [1], the 125I-endothelin-1 binding inhibition was determined as 11%. Besides, the 125I-ET-1 binding inhibition in experiment [3] is listed as 82%.

Take `CCC[C@@H](NC(=O)[C@@H](Cc1c(C#N)[nH]c2ccccc12)NC(=O)[C@@H](NC(=O)N1C(C)CCCC1C)C1CCCC1)C(=O)NC` (stereo partly drawn) [Compound 9]: in experiment [1], testing at 1.1 µM gave an inhibition of 100%.

On to `CCCC[C@@H](NC(=O)[C@@H](Cc1c(C#N)[nH]c2ccccc12)NC(=O)[C@H](CC(C)C)NC(=O)N1C(C)CCCC1C)C(=O)O` (stereo partly drawn) [Compound 2], for which, in experiment [1], the inhibition at 1.1 µM was 99%.

Compound `CCCC[C@@H](NC(=O)[C@@H](Cc1c(C#N)[nH]c2ccccc12)NC(=O)[C@H](CC(C)(C)C)NC(=O)N1C(C)CCCC1C)C(=O)OC` (stereo partly drawn) [Compound 3] registered an inhibition at 1.1 µM in experiment [1] of 99%.

On to `COC(=O)C[C@H]1NC(=O)[C@@H](Cc2c(C#N)[nH]c3ccccc23)NC(=O)[C@H](CC(C)C)NC(=O)[C@@H](C(C)(C)SC)NC(=O)[C@@H]2CCCN2C1=O` [Compound 10] (cyclo(L[X1][dD](OMe)P[dPen](Me))), for which, in experiment [1], the inhibition at 1.1 µM stood at 65%.

For the compound “cyclo(-DTrp-DCys(O3 Na)-Pro-DVal-Leu-) [compound 5, reference compound]”, the 125I-endothelin-1 binding inhibition in experiment [1] is on record as 0.6%. The 125I-ET-1 binding inhibition in experiment [3] is reported as 85%.

`CCCC[C@@H](NC(=O)[C@@H](Cc1c(C#N)[nH]c2ccccc12)NC(=O)[C@H](CC(C)(C)C)NC(=O)N1C(C)CCCC1C)C(=O)O` (stereo partly drawn) [Compound 4] had an inhibition at 1.1 µM in experiment [1] of 100%.

Regarding `CC(C)C[C@@H]1NC(=O)[C@@H](C(C)C)NC(=O)[C@@H]2CCCN2C(=O)[C@@H](CC(=O)O)NC(=O)[C@@H](Cc2c(C#N)[nH]c3ccccc23)NC1=O` [Compound 12] (cyclo(L[X1][dD]P[dV])), 1.1 µM produced 78% inhibition in experiment [1].

As to `CCC[C@@H](NC(=O)[C@@H](Cc1c(C#N)[nH]c2ccccc12)NC(=O)[C@@H](NC(=O)N1C(C)CCCC1C)C1CCCC1)C(=O)O` (stereo partly drawn) [Compound 8], the inhibition at 1.1 µM in experiment [1] worked out at 96%.

In turn, `CCC[C@@H](NC(=O)[C@@H](Cc1c(C#N)[nH]c2ccccc12)NC(=O)[C@@H](NC(=O)N1C(C)CCCC1C)C1CCCC1)C(=O)OC` (stereo partly drawn) [Compound 7] yielded an inhibition at 1.1 µM in experiment [1] of 96%.
